The target in this test is T1, TLR4; Recombinant human TLR4 protein (Active) (Homo sapiens, UniProt O00206).
T1 construct: commercial recombinant protein (Abcam, 'Active'); immobilised on CM5 chip by amine coupling
The test can be described thus: surface plasmon resonance (Biacore T200, TLR4 immobilised on CM5 chip). Format: binding. The text has this: surface plasmon resonance (Biacore T200, TLR4 immobilised on CM5 chip) on TLR4; Recombinant human TLR4 protein (Active)
Background: Surface plasmon resonance follows binding to a sensor surface in real time, without labels.

From publication PMC10981743, “Network pharmacology, computational biology integrated surface plasmon resonance technology reveals the mechanism of ellagic acid against rotavirus” (Scientific Reports, 2024) come the findings set out here.

Each structure is given as a SMILES string.

T1 sequence (O00206 24-631 limits assumed): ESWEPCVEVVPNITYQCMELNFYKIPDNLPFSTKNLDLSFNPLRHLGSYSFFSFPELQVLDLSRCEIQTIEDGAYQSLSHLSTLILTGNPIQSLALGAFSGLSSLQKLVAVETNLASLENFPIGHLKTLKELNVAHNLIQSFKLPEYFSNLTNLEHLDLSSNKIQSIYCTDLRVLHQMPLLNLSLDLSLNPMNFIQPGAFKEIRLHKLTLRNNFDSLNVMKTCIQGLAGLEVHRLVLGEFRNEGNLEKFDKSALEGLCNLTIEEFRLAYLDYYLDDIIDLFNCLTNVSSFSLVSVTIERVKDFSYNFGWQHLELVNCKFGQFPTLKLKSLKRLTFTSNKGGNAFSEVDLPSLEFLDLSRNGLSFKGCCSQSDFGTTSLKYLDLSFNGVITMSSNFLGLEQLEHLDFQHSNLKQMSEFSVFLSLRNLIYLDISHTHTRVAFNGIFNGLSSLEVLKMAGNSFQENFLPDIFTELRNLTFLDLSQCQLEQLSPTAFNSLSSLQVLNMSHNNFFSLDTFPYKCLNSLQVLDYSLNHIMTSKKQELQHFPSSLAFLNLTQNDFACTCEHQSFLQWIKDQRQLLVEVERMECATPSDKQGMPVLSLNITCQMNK

Broadly, the Kd is the free concentration of one partner at which half of the binding sites on the other are occupied at equilibrium, for simple one-to-one binding. `O=c1oc2c(O)c(O)cc3c(=O)oc4c(O)c(O)cc1c4c23` [Ellagic acid]: the Kd turned out to be 19.2 µM.
